Data as given in patent US8586550B2, “Thiazole derivatives as SGLT2 inhibitors and pharmaceutical composition comprising same” (Green Cross Corporation, priority 2010, dated 2013).

Biological target: T1, Human SGLT2 (hSGLT2) (Homo sapiens, UniProt P31639)
T1 construct: expressed in transfected cells
T1 sequence (P31639 1-672): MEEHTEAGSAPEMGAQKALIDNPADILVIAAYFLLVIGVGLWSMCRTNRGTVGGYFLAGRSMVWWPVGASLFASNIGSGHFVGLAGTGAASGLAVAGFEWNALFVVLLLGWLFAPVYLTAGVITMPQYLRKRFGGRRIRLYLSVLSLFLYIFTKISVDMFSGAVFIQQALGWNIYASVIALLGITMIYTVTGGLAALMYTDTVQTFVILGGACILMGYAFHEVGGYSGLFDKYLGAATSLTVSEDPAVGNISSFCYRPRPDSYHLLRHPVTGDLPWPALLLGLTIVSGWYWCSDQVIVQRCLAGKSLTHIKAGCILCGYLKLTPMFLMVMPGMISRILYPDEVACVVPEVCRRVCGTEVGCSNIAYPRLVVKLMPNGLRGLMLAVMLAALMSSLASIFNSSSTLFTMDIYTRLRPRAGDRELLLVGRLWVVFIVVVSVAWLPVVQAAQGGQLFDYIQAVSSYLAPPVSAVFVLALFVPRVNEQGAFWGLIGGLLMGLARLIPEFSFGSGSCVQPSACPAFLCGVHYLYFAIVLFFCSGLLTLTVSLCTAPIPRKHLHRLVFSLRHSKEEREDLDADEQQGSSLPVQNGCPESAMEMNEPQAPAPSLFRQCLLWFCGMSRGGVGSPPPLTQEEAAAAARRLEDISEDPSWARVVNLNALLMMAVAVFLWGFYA
Experiment: Sodium-dependent glucose transport (14C-AMG uptake) assay in CHO cells stably expressing hSGLT2
Assay type: cell-based
Conditions: CHO cells expressing hSGLT2, 14C-AMG uptake, 37° C. for 2 h; single determinations; read-out: hSGLT2 Inhibitory Activity IC50
Excerpt: Cloning and Cell Line Construction for Human SGLT2
Human SGLT2 (hSGLT2) gene was amplified by PCR from cDNA-Human Adult Normal Tissue Kidney (Invitrogen). The hSGLT2 sequence was cloned into pcDNA3.1(+) for mammalian expression and were stably transfected into chinese hamster ovary (CHO) cells. SGLT2-expressing clones were selected based on resistance to G418 antibiotic (Geneticin) and activity in the ^14C-α-methyl-D-glucopyranoside (^14C-AMG) uptake assay.
Inhibitory Effects on Human SGLT2 Activities
For sodium-dependent glucose transport assay, cells expressing hSGLT2 were seeded into a 96-well culture plate at a density of 5×10^4 cells/well in RPMI medium 1640 containing 10% fetal bovine serum. The cells were used 1 day after plating. They were incubated in pretreatment buffer (10 mM HEPES, 5 mM Tris, 140 mM choline chloride, 2 mM KCl, 1 mM CaCl2, and 1 mM MgCl2, pH 7.4) at 37° C. for 10 min. They were then incubated in uptake buffer (10 mM HEPES, 5 mM Tris, 140 mM NaCl, 2 mM KCl, 1 mM CaCl2, 1 mM MgCl2, and 1 mM ^14C-nonlabeled AMG, pH 7.4) containing ^14C-labeled (8 μM) and inhibitor or dimethylsulfoxide (DMSO) vehicle at 37° C. for 2 h. Cells were washed twice with washing buffer (pretreatment buffer containing 10 mM AMG at room temperature) and then the radioactivity was measured using a liquid scintillation counter. IC50 was determined by nonlinear regression analysis using GraphPad PRISM [Katsuno, K. et al. J. Pharmacol. Exp. Ther. 2007, 320, 323-330; Han, S. et al. Deabetes, 2008, 57, 1723-1729].

Row | IC50 [nM] | Compound
1 | 8.21 | CCCCCOc1cnc(Cc2cc([C@@H]3O[C@H](CO)[C@@H](O)[C@H](O)[C@H]3O)ccc2Cl)s1 [Example 23, (2S,3R,4R,5S,6R)-2-(4-Chloro-3-((5-(pentyloxy)thiazol-2-yl)methyl)phenyl)-6-(hydroxymethyl)-tetrahydro-2H-pyran-3,4,5-triol]
2 | 30.9 | CCSc1cnc(Cc2cc([C@@H]3O[C@H](CO)[C@@H](O)[C@H](O)[C@H]3O)ccc2Cl)s1 [Example 24, (2S,3R,4R,5S,6R)-2-(4-Chloro-3-((5-(ethylthio)thiazol-2-yl)methyl)phenyl)-6-(hydroxymethyl)-tetrahydro-2H-pyran-3,4,5-triol]
3 | 56.4 | CCCSc1cnc(Cc2cc([C@@H]3O[C@H](CO)[C@@H](O)[C@H](O)[C@H]3O)ccc2Cl)s1 [Example 25, (2S,3R,4R,5S,6R)-2-(4-Chloro-3-((5-(propylthio)thiazol-2-yl)methyl)phenyl)-6-(hydroxymethyl)-tetrahydro-2H-pyran-3,4,5-triol]
4 | 58.7 | CCCCSc1cnc(Cc2cc([C@@H]3O[C@H](CO)[C@@H](O)[C@H](O)[C@H]3O)ccc2Cl)s1 [Example 26, (2S,3R,4R,5S,6R)-2-(3-((5-(Butylthio)thiazol-2-yl)methyl)-4-chlorophenyl)-6-(hydroxymethyl)-tetrahydro-2H-pyran-3,4,5-triol]
5 | 18.9 | CCCCCSc1cnc(Cc2cc([C@@H]3O[C@H](CO)[C@@H](O)[C@H](O)[C@H]3O)ccc2Cl)s1 [Example 27, (2S,3R,4R,5S,6R)-2-(4-Chloro-3-((5-(pentylthio)thiazol-2-yl)methyl)phenyl)-6-(hydroxymethyl)-tetrahydro-2H-pyran-3,4,5-triol]
6 | 110 | OC[C@H]1O[C@@H](c2ccc(Cl)c(C3(c4ncc(-c5ccoc5)s4)CC3)c2)[C@H](O)[C@@H](O)[C@@H]1O [Example 28, (2S,3R,4R,5S,6R)-2-(4-Chloro-3-(1-(5-(furan-3-yl)thiazol-2-yl)cyclopropyl)phenyl)-6-(hydroxymethyl)tetrahydro-2H-pyran-3,4,5-triol]
7 | 38.6 | OC[C@H]1O[C@@H](c2ccc(Cl)c(C3(c4ncc(-c5cccs5)s4)CC3)c2)[C@H](O)[C@@H](O)[C@@H]1O [Example 29, (2S,3R,4R,5S,6R)-2-(4-Chloro-3-(1-(5-(thiophen-2-yl)thiazol-2-yl)cyclopropyl)phenyl)-6-(hydroxymethyl)tetrahydro-2H-pyran-3,4,5-triol]
8 | 1.43 | Cc1ccc([C@@H]2O[C@H](CO)[C@@H](O)[C@H](O)[C@H]2O)cc1Cc1ncc(-c2ccco2)s1 [Example 30, (2S,3R,4R,5S,6R)-2-(3-((5-(Furan-2-yl)thiazol-2-yl)methyl)-4-methylphenyl)-6-(hydroxymethyl)tetrahydro-2H-pyran-3,4,5-triol]
9 | 3.8 | Cc1ccc([C@@H]2O[C@H](CO)[C@@H](O)[C@H](O)[C@H]2O)cc1Cc1ncc(-c2cccs2)s1 [Example 32, (2R,3S,4R,5R,6S)-2-(Hydroxymethyl)-6-(4-methyl-3-((5-(thiophen-2-yl)thiazol-2-yl)methyl)phenyl)tetrahydro-2H-pyran-3,4,5-triol]
10 | 1.28 | Cc1ccc([C@@H]2O[C@H](CO)[C@@H](O)[C@H](O)[C@H]2O)cc1Cc1ncc(-c2ccsc2)s1 [Example 33, (2R,3S,4R,5R,6S)-2-(Hydroxymethyl)-6-(4-methyl-3-((5-(thiophen-3-yl)thiazol-2-yl)methyl)phenyl)tetrahydro-2H-pyran-3,4,5-triol]
11 | 5.69 | Cc1ccc([C@@H]2O[C@H](CO)[C@@H](O)[C@H](O)[C@H]2O)cc1Cc1ncc(-c2nccs2)s1 [Example 34, (2S,3R,4R,5S,6R)-2-(3-(2,5′-Bithiazol-2′-ylmethyl)-4-methylphenyl)-6-(hydroxymethyl)tetrahydro-2H-pyran-3,4,5-triol]
12 | 4.17 | Cc1ccc([C@@H]2O[C@H](CO)[C@@H](O)[C@H](O)[C@H]2O)cc1Cc1ncc(-c2ccccc2)s1 [Example 35, (2R,3S,4R,5R,6S)-2-(Hydroxymethyl)-6-(4-methyl-3-((5-phenylthiazol-2-yl)methyl)phenyl)tetrahydro-2H-pyran-3,4,5-triol]
